We go through three molecules from patent publication US20100239556A1, “PROMOTING ECM PRODUCTION BY FIBROBLAST CELLS AND/OR PROMOTING MIGRATION OF FIBROBLAST CELLS IN A BIOLOGICAL SYSTEM” (TGR BioScience Pty Ltd., priority 2006, published 2010).

The subject of one data set is dermis. Put plainly: Cellular integration and ECM production of dermal filler substances implanted intradermally. Conditions: one month after implantation; for cellular integration and ECM production within Hylaform: LP 1 mg/ml or HRP 500 μg/ml added to Hylaform, or Hylaform alone; for cellular integration and ECM production within Restylane: LP 1 mg/ml or HRP 500 μg/ml added to Restylane, or Restylane alone. The data set is classed as in vivo, Sprague-Dawley rats. Here is the method: The ability of agents with peroxidase activity to stimulate the production of endogenous ECM within, or about, a substrate when implanted in vivo was assessed. Substrates used for these experiments were two hyaluronic acid based dermal filler substances; Hylaform® Plus containing 5.5 mg/ml hylan B gel and Restylane® containing 20 mg/ml stabilised hyaluronic acid, and Sculptra® containing poly-L-lactic acid. The two pre-prepared “ready to use” hyaluronic acid filler substances were diluted 1:2 with 1 mg/ml HRP to give a final concentration of 500 μg/ml HRP whilst Sculptra powder was dissolved in a lmg/ml LP solution to final concentrations of 25 and 50 mg/ml poly-L-lactic acid. As described in example 8, female Sprague-Dawley rats were lightly anaesthetized and a volume of approximately 50 μl of the filler substance+protein with peroxidase activity or filler substance alone were injected intradermally into different sites on their dorsum. The rats were returned to their cage and left alone for 7 days or 1 month after which they were killed by CO2 asphyxiation and the skin at the injection sites collected for histological assessment as described in example 8, or immunohistochemical staining for collagen I using the method outlined previously for the SMA immunohistochemistry (in Example 3) with the variation that 5 μg/ml rabbit anti Collagen-I (Rocklands Immunochemicals) was used as the primary antibody.

Data set [1] can be described thus: Elution of peroxidase activity from INTEGRA (Sigmafast OPD detection). The method, then: (§1) These experiments were performed by pre-incubating 1 cm×1 cm pieces of INTEGRA® with SBP (25 μg/ml) as described in Example 3 for either 30 minutes or 16 hours, control pieces were pre-incubated in DMEM only. After this time, the pieces of INTEGRA® were washed in fresh media to remove excess SBP solution, and placed into the wells of a 12-well culture plate pre-seeded with HFF cells (2×10^5cells/well) that were grown to confluency over three days. The media from these wells was collected after 24 and 48 hours with peroxidase activity measured (to determine the rate of elution of the proteins with peroxidase activity from the Integra) and the collagen content measured by ELISA (to ensure the eluted proteins with peroxidase activity retained the capacity to stimulate collagen production by the HFF cells). The peroxidase activity was assessed using the Sigmafast™ O-phenylenediamine dihydrochloride (OPD) detection method as per the manufacturers instructions. Briefly, 5 μl of sample was combined with 100 μl of reagent and relative peroxidase activity determined after 5-10 minutes incubation by measuring absorbance at 450 nm using a Wallac Victor Multilabel HTS counter.

In data set [2] the test system is HFF cells. Put plainly: Fibroblast infiltration into INTEGRA scaffold (SMA immunohistochemistry). The data set is classed as cell-based, human. To be noted: 6 days. The text has this:
INTEGRA® was cut into lcm x lcm pieces using a sterile scalpel, the pieces transferred to a petri dish using sterile forceps and washed four times each with PBS followed by serum-free DMEM, to remove the alcohol storage medium and to equilibrate the porous scaffold for exposure to cells. After the last wash, the INTEGRA® pieces were transferred to the wells of a 12 well tissue culture plate (collagen layer facing up) immersed in media containing proteins having peroxidase activity. This “pre-treatment” of the INTEGRA® with proteins having peroxidase activity was performed for up to 16 hours at 37° C. in a CO2 incubator. […]
Additional experiments were performed as described above using HFF cells and varying the period of application of the proteins having peroxidase activity to include a “pre-treatment” application only (ie INTEGRA® incubated with SBP 25 μg/ml for up to 16 hours prior to the addition of cells), a “pre-treatment” and “post-treatment” application (ie INTEGRA® pre-treated with SBP and SBP added to the culture media once the INTEGRA had been seeded with cells) and a “post-treatment” application only (ie SBP added to the culture media once the INTEGRA® had been seeded with cells). The INTEGRA® was harvested after 6 days in culture and the number of SMA-positive fibroblast cells counted in five representative fields of view of sections from each condition.

The test system of data set [3] is HFF cells. Put plainly: ECM production within INTEGRA scaffold (collagen I immunohistochemistry). To be noted: SBP 25 μg/ml pre-, pre+post- or post-treatment. The class given is cell-based, human. The source says: (§2) INTEGRA® was cut into lcm x lcm pieces using a sterile scalpel, the pieces transferred to a petri dish using sterile forceps and washed four times each with PBS followed by serum-free DMEM, to remove the alcohol storage medium and to equilibrate the porous scaffold for exposure to cells. After the last wash, the INTEGRA® pieces were transferred to the wells of a 12 well tissue culture plate (collagen layer facing up) immersed in media containing proteins having peroxidase activity. This “pre-treatment” of the INTEGRA® with proteins having peroxidase activity was performed for up to 16 hours at 37° C. in a CO2 incubator. After the “pre-incubation” period, the media was replaced with fresh DMEM supplemented with 10% FBS (ie normal growth media as the control) containing 5×10^5 human fibroblast cells plus or minus proteins having peroxidase activity. After allowing 24 hours for the fibroblast cells to attach to the collagen matrix of the INTEGRA® scaffold, the INTEGRA® pieces were transferred to fresh 12 well plates to ensure any cells not attached to the matrix surface were removed. Fresh media containing proteins with peroxidase activity were added to the wells and the INTEGRA® pieces incubated for up to 14 days (“post-treatment” period) with the media changed every 7 days as necessary. At the end of the experiment the INTEGRA® pieces were harvested and fixed in 10% buffered formaldehyde before they were processed, embedded in paraffin wax, cut in cross-section and placed onto microscope slides for histological and immunohistochemical analysis.
(§3) To confirm proteins having peroxidase activity promote the generation of a three-dimensional human tissue by stimulating the production of collagen and other ECM components to fill the interstices of a three-dimensional framework or scaffold, INTEGRA® pieces collected from the experiments described in Example 3 were analysed for the production of Collagen I (as a representative ECM protein) using immunohistochemistry. […]

For a further data set, the system named is adult fibroblast cells. The data set is described as above. The class given is cell-based, human.
Source text: as §2, §3

The subject of data set [4] is HFF cells. Put plainly: Collagen I production stimulated by SBP eluted from INTEGRA (ELISA). The data set is classed as cell-based, human. To be noted: versus control INTEGRA pieces. Here is the method:
as §1

In data set [5] the test system is primary-adult fibroblast cells. Put plainly: Fibroblast infiltration into INTEGRA scaffold (SMA immunohistochemistry). The data set is classed as cell-based, human. The text has this: INTEGRA® was cut into lcm x lcm pieces using a sterile scalpel, the pieces transferred to a petri dish using sterile forceps and washed four times each with PBS followed by serum-free DMEM, to remove the alcohol storage medium and to equilibrate the porous scaffold for exposure to cells. After the last wash, the INTEGRA® pieces were transferred to the wells of a 12 well tissue culture plate (collagen layer facing up) immersed in media containing proteins having peroxidase activity. This “pre-treatment” of the INTEGRA® with proteins having peroxidase activity was performed for up to 16 hours at 37° C. in a CO2 incubator. After the “pre-incubation” period, the media was replaced with fresh DMEM supplemented with 10% FBS (ie normal growth media as the control) containing 5×10^5 human fibroblast cells plus or minus proteins having peroxidase activity. After allowing 24 hours for the fibroblast cells to attach to the collagen matrix of the INTEGRA® scaffold, the INTEGRA® pieces were transferred to fresh 12 well plates to ensure any cells not attached to the matrix surface were removed. Fresh media containing proteins with peroxidase activity were added to the wells and the INTEGRA® pieces incubated for up to 14 days (“post-treatment” period) with the media changed every 7 days as necessary. […]

[6] abbreviates: 25 μg/ml before and after addition of cells, 7 days, versus 7 and 14 day controls.

Turning to lactoperoxidase [LP], in the data set with dermis, the “cellular integration and ECM production within Hylaform” value is “surprising increase in cellular infiltration and integration and cell-associated ECM production”; the “cellular integration and ECM production within Restylane” value is “surprising increase in cellular infiltration and integration and cell-associated ECM production”.
Take soy bean peroxidase [SBP]: the “peroxidase activity eluted, pre-incubated 16 hours compared to 30 minutes” value in data set [1] is “approximately one third more”. In addition, the “peroxidase activity in the medium collected after 24 and 48 hours” value in data set [1] (24 versus 48 hours elution) is “identical”. For the same molecule, the “number of fibroblast cells infiltrating and populating the INTEGRA” value with HFF cells [2] (SBP 25 μg/ml pre-, pre+post- or post-treatment, versus 10% FBS control) was “major influence on the number of fibroblast cells infiltrating and populating”. Also, the “penetration of HFF cells into the scaffold” value in the data set on HFF cells [2] (SBP 25 μg/ml, controls limited to about the top third) is “penetrated the full thickness of the scaffold”. Moreover, the “production and deposition of cell-associated ECM in the scaffold” value with HFF cells [3] was “as effective at promoting the production and depositon of cell-associated ECM throughout the full thickness of the scaffold”. Besides, in the data set with adult fibroblast cells (setting [6]), the “cell-associated ECM within the interstices of the scaffold” value is on record as “much more cell-associated ECM was evident”. Besides, the “ECM production (collagen I ELISA) by HFF cells exposed to eluted protein” value in the data set with HFF cells [4] is reported as “able to stimulate ECM production”. Besides, the “cells within the interstices of the INTEGRA scaffold” value in data set [5] (setting [6]) was “many more cells were evident within the interstices of the scaffold”.

B1: horse radish peroxidase (protein, UniProt P00433 31-338, looked up)
Peroxidase C1A: QLTPTFYDNSCPNVSNIVRDTIVNELRSDPRIAASILRLHFHDCFVNGCDASILLDNTTSFRTEKDAFGNANSARGFPVIDRMKAAVESACPRTVSCADLLTIAAQQSVTLAGGPSWRVPLGRRDSLQAFLDLANANLPAPFFTLPQLKDSFRNVGLNRSSDLVALSGGHTFGKNQCRFIMDRLYNFSNTGLPDPTLNTTYLQTLRGLCPLNGNLSALVDFDLRTPTIFDNKYYVNLEEQKGLIQSDQELFSSPNATDTIPLVRSFANSTQTFFNAFVEAMDRMGNITPLTGTQGQIRLNCRVVNSNS
As to B1, in the data set on adult fibroblast cells (25 μg/ml, 14 days, versus 14 days standard conditions), the “ECM production and integration” value was “much greater ECM production and integration”. For the same molecule, in the data set with dermis, the “cellular integration and ECM production within Hylaform” value was “Increased cellular integration and ECM production”; the “cellular integration and ECM production within Restylane” value is “Increased cellular integration and ECM production”. Also, the “cells within the INTEGRA scaffold” value in data set [5] (25 μg/ml, 14 days of treatment) is “even greater number of cells evident within the scaffold”.
